# Assay results taken from patent US20070098781A1, “Modified release compositions for DPP-IV inhibitors” (priority 2005, published 2007).
# Where two headings read alike, the source gives them in different places.
# How the values were obtained:
# [1] = tested on: plasma DPPIV; test: Triple-cannulated cynomolgus monkey model: plasma DPPIV inhibition after site-specific delivery; format: in vivo; details: for Mean Plasma DPPIV Inhibition: 5 mg/kg in solution
# Method: (§1) A study was conducted in an in-house cynomolgus monkey model, in which permanent cannulae had been surgically attached to various sections of their intestine. This animal model allows compounds to be delivered to precise regions of the intestine in the intact animal in vivo. A single dose cross-over study was performed in three animals, where 5 mg/kg of (2S)-1-{[1,1-Dimethyl-3-(4-pyridin-3-yl-imidazol-1-yl)-propylamino]-acetyl}-pyrrolidine-2-carbonitrile was delivered (with sufficient wash out periods in between), in solution by gavage to the stomach or via the cannulae to the duodenum, the jejunum-ileum junction or the top of the ascending colon, respectively. An oral glucose challenge was performed in each animal for each treatment 2 hours post-dose of compound (plus a pre-study control). Full plasma PK and DPPIV inhibition profiles were obtained for each treatment. Blood glucose profiles were measured for 3 hours post-glucose challenge.
# [2] = Triple-cannulated cynomolgus monkey model: plasma PK after site-specific delivery; format: in vivo; details: 5 mg/kg; for AUC: plasma, 5 mg/kg in solution
# Method: as §1
# [3] = tested on: blood glucose; test: Triple-cannulated cynomolgus monkey model: blood glucose after oral glucose challenge; format: in vivo; details: 5 mg/kg; for Mean Delta Glucose AUEC: oral glucose challenge 2 hours post-dose
# Method: as §1
# [4] = Pharmacoscintigraphic evaluation of regional drug absorption: plasma pharmacokinetics after site-specific gastrointestinal delivery (Enterion capsule); format: in vivo, human; details: 400 mg, healthy volunteers; for AUC / Cmax: both sexes, human, plasma, oral; for AUC: read-out: Mean (SD) AUC; for Cmax: read-out: Mean (SD) Cmax
# Method: (§2) A pharmacoscintigraphic evaluation of the regional drug absorption and pharmacodynamics of (2S)-1-{[2-(5-Methyl-2-phenyl-oxazol-4-yl)-ethylamino]-acetyl}-pyrrolidine-2-carbonitrile mesylate in up to 9 healthy male or female volunteers following administration to four different sites of the gastrointestinal tract: stomach, proximal small bowel, ileum and ascending colon was carried out. The study was conducted as an open label, 4-way cross-over design consisting of 4 study periods of approximately 2-3 days duration, each separated by washout period of at least 4 days.
# (§3) During each study period, 400 mg (2S)-1-{[2-(5-Methyl-2-phenyl-oxazol-4-yl)-ethylamino]-acetyl}-pyrrolidine-2-carbonitrile mesylate was delivered to the appropriate gastrointestinal target using Enterion™ capsule technology. The capsule was administered with water containing a radiolabelled marker (^99mTc-DTPA) which was used to define the gastrointestinal anatomy and the movement of the capsule was followed by means of an ^111In marker within the device. The location of both radiolabels was monitored on images obtained from a dual wavelength gamma camera. Capsule activation and thereby drug release was achieved by applying an external signal. The release was planned to occur within 5 hours of the administration of a standardised low calorie meal.
# (§4) The pharmacokinetics of (2S)-1-{[2-(5-Methyl-2-phenyl-oxazol-4-yl)-ethylamino]-acetyl}-pyrrolidine-2-carbonitrile mesylate were determined after each administration by monitoring plasma concentrations of parent drug and metabolites. The pharmacodynamic response was assessed by measuring the concentrations of circulating markers (glucose, insulin, glucagon and GLP-1) for up to 4 hours following an oral glucose tolerance test (OGTT), which itself was carried out 2 hours after release of the drug substance. A control OGTT response (i.e. no drug treatment) was established for each subject before the first treatment period began.
# [5] = tested on: circulating markers (glucose, insulin, glucagon and GLP-1); test: Pharmacodynamic response after site-specific delivery: circulating markers following an oral glucose tolerance test (OGTT); format: in vivo, human; details: healthy volunteers, 400 mg; for Mean Delta Blood Glucose AUEC / Mean Plasma GLP-1 AUEC / Mean Plasma Insulin AUEC: OGTT 2 h after release, baseline corrected
# Method: as §2, §3, §4
# [6] = dosing region ascending colon (cannula)
# [7] = dosing region duodenum (cannula)
# [8] = dosing region ileum-jejunum junction (cannula)
# [9] = delivery to the ileum-jejenum junction or colon, versus other sites
smiles,measurement,setting,value
"CC(C)(CCn1cnc(-c2cccnc2)c1)NCC(=O)N1CCC[C@H]1C#N [(2S)-1-{[1,1-Dimethyl-3-(4-pyridin-3-yl-imidazol-1-yl)-propylamino]-acetyl}-pyrrolidine-2-carbonitrile]",Mean Plasma DPPIV Inhibition,[1]; [6],45 % baseline
same,Mean Plasma DPPIV Inhibition,[1]; [7],60 % baseline
same,Mean Plasma DPPIV Inhibition,[1]; [8],45 % baseline
same,Mean Plasma DPPIV Inhibition,[1]; dosing region stomach (gavage),65 % baseline
same,average plasma DPPIV inhibition,"[1]; 5 mg/kg, delivery to the ileum-jejenum junction or colon, versus other sites",lowest average plasma DPPIV inhibition
same,systemic exposure to the compound,[2]; [9],lowest systemic exposure
same,AUC,[2]; [6],354 ng·h/mL
same,AUC,[2]; [7],3890 ng·h/mL
same,AUC,[2]; [8],1350 ng·h/mL
same,AUC,"[2]; po, dosing region stomach (gavage)",2280 ng·h/mL
same,effect on glucose,[3]; [9],highest effect on glucose
same,blood glucose compared to control,"[3]; delivery to the stomach, ileum or the ascending colon",reduction in blood glucose
same,Mean Delta Glucose AUEC,[3]; dosing region ascending colon,52 % Control
same,Mean Delta Glucose AUEC,[3]; dosing region duodenum,116 % Control
same,Mean Delta Glucose AUEC,[3]; dosing region ileum-jejunum junction,76 % Control
same,Mean Delta Glucose AUEC,[3]; dosing region stomach,88 % Control
CS(=O)(=O)O.Cc1oc(-c2ccccc2)nc1CCNCC(=O)N1CCC[C@H]1C#N [(2S)-1-{[2-(5-Methyl-2-phenyl-oxazol-4-yl)-ethylamino]-acetyl}-pyrrolidine-2-carbonitrile mesylate],AUC,[4]; dosing region colon,3540 ng·h/mL
same,Cmax,[4]; dosing region colon,736 ng/mL
same,AUC,[4]; dosing region duodenum,14200 ng·h/mL
same,Cmax,[4]; dosing region duodenum,7580 ng/mL
same,AUC,[4]; dosing region ileum,12300 ng·h/mL
same,Cmax,[4]; dosing region ileum,5420 ng/mL
same,AUC,[4]; dosing region stomach,12200 ng·h/mL
same,Cmax,[4]; dosing region stomach,5570 ng/mL
same,absorption and elimination rate (plasma profiles),[4]; all routes of administration except for the colon,broadly similar
same,period for which plasma concentrations were sustained,[4]; colon delivery,6-8 hours post dose
same,plasma concentrations,[4]; colon delivery versus other routes,substantially lower
same,Average exposure,[4]; delivery to the proximal small bowel (duodenum) versus other sites,slighter greater
same,Mean Delta Blood Glucose AUEC,[5]; dosing region PSB,130 % Control
same,Mean Plasma GLP-1 AUEC,[5]; dosing region PSB,180 % Control
same,Mean Plasma Insulin AUEC,[5]; dosing region PSB,160 % Control
same,Mean Delta Blood Glucose AUEC,[5]; dosing region colon,83 % Control
same,Mean Plasma GLP-1 AUEC,[5]; dosing region colon,87 % Control
same,Mean Plasma Insulin AUEC,[5]; dosing region colon,101 % Control
same,Mean Delta Blood Glucose AUEC,[5]; dosing region ileum,47 % Control
same,Mean Plasma GLP-1 AUEC,[5]; dosing region ileum,340 % Control
same,Mean Plasma Insulin AUEC,[5]; dosing region ileum,47 % Control
same,Mean Delta Blood Glucose AUEC,[5]; dosing region stomach,55 % Control
same,Mean Plasma GLP-1 AUEC,[5]; dosing region stomach,151 % Control
same,Mean Plasma Insulin AUEC,[5]; dosing region stomach,65 % Control
same,Mean blood glucose area under the effect curve (AUEC) following an OGTT vs control,[5]; both stomach and ileal delivery,substantially decreased
same,active glucagon-like peptide 1 (primary mechanistic biomarker),[5]; only ileal delivery,sustained systematic increase
